Experimental findings from patent US20260193219A1, “TRIAZINE DERIVATIVES FOR TREATING DISEASES RELATING TO NEUROTROPHINS” (AlzeCure Pharma AB, priority 2020, published 2026) are described below.

For orientation: EC50 means the concentration at which the effect is half-maximal. Low values mean a more potent agent, high ones a less potent agent.

One data set has as its target T1, TrkA (Homo sapiens, UniProt P04629).
T1 construct: expressed in transfected cells; host or cells: U2OS
Nature of the data set: In vitro Trk receptor modulation assay (Enzyme Fragment Complementation), U2OS cells over-expressing TrkA. The class given is cell-based. As to conditions: compound pre-mixed with ligand (NGF), final 10 ng/mL, 3 hours, modulator mode. The text has this:
(§1) A high throughput cell-based screen was used to identify positive modulators of TrkA and TrkB. The screen involves the use of cell-based assay overexpressing TrkA, or TrkB. The purpose of the assay is to identify compounds that modulate neurotrophin signalling (Forsell et al 2012). The assay can be used in inhibitor mode using a high concentration of ligand, in modulator mode using an intermediate concentration and in agonist mode using a low concentration of ligand.
(§2) The assay uses Enzyme Fragment Complementation (EFC) technique, which is a proximity-based assay. Briefly, cells used in this assay over-express two fusion proteins, i.e. the receptor, which can be one of TrkA or TrkB fused to a small peptide of beta-galactosidase and an adaptor protein, i.e. SHC1 (or any other Trk-adaptor protein) fused to the major part of beta-galactosidase. […] The proximity between the small activating peptide on the receptor and the major part of beta-galactosidase on the adaptor protein leads to an active beta-galactosidase enzyme. The activation of the receptor is quantified by measuring the amount of active beta-galactosidase by its conversion of a non-luminescent substrate into a luminescent product.
(§3) U2OS-cells, over-expressing TrkA or TrkB, were plated in 96- or 384-well plates and incubated overnight. On the following day, test compound was pre-mixed with ligand (NGF) and the ligand-compound mixture is then added to the cells to yield a final ligand concentration of 10 ng/mL. After 3 hours of incubation at room temperature, the incubation is stopped by the addition of a beta-galactosidase substrate mixture containing detergents. The substrate mixture is incubated for 60 minutes at ambient temperature. The luminescence is thereafter read by the use of a plate reader.

The test system of the next data set is C57/B16 mice. Put plainly: Forced Swim Test. Format: in vivo. Particulars: 1 mg/kg single s.c. administration 30 min prior to FST on day 2. The protocol:
The Forced Swim Test (FST) is a commonly used test in rodents to assess depression-like behaviour (Porsolt et al., Nature, 1977, 266, 730-732). The model measures a learned helplessness response and has shown to have predictive validity for clinical antidepressants, e.g. SSRIs.
The mouse version consists of a vertical glass cylinder (25 cm high, 13 cm in diameter) filled with tap water up to 16 cm in height (25±0.5° C.). This means that the animal cannot escape (climb out) nor stand on its tail or hindlimbs. After a certain time the animal realize that it cannot get out and will stop struggling to get out, and instead become immobile and float.
The animal is placed inside the cylinder and allowed two swimming sessions: a 10 min pre-test (on day 1), 24 h later (day 2) a second 6 min test is conducted. The total duration of immobility and latency to the first immobility are recorded during the second 6 min test. Immobility is defined as floating passively in an upright position in the water, with only small movements necessary to keep the head above the water surface. Animals are then gently removed from water and dried.
Vehicle (20% DMSO in 0.1M PBS) or 1 mg/kg of the compound of Example 1 were administered to C57/B16 mice as a single s.c. administration 30 min prior to FST on day 2. As comparator, fluoxetine is commonly used a dose of 20 mg/kg. […]

Another data set concerns C57/Bl6 mice. Nature of the data set: Passive avoidance task in scopolamine-treated mice. The class given is in vivo. Particulars: mice treated with scopolamine 0.3 mg/kg s.c.; compound single s.c. administration 60 min prior to training, different doses. How it is done:
The passive avoidance (PA) is an aversive learning task based on classical (Pavlovian) fear conditioning that allows for analysis of both facilitation and impairment of memory function by adjusting the unconditioned stimulus, i.e. the electrical foot shock. Commonly a cognitive-impairing agent is administered to the animals to mimic the neurochemical disturbances present in various cognitive disorders e.g. cholinergic (scopolamine) and glutamatergic (MK-801) deficits.
Prior to testing, the animals are brought to the experimental room where they were allowed to habituate for 60 min. The test is conducted using a modified shuttle box with two communicating compartments of equal size with a small sliding door built into the separating wall and a stainless-steel bar floor. One of the compartments is not illuminated and thus black whereas the other compartment (the light one) is illuminated by an electric bulb, installed on the top of a plexiglass cover. The PA training is conducted in a single session. […] Latency to cross over into the dark compartment (training latency) is recorded. […] The latency to cross over into the dark compartment with all four feet is measured (retention latency) as well as time in bright compartment and a number of other relevant parameters (e.g. number of visits in the dark compartment). […]

Data set [1] in a line: Human liver microsomal stability. As to conditions: human liver microsomes 0.5 mg/mL, 3 μM compound, NADPH, 37° C. The class given is in vitro ADME. How it is done: A 10 mM stock solution (in DMSO) was prepared for each compound. From the intermediate stock solution of 2 mM, a working solution of 0.5 mM was prepared by diluting the compound in Acetonitrile:water (50:50). The compound (1.8 μL of working solution) was spiked in 0.1 M potassium phosphate buffer (260.7 μL), pH 7.4 at a concentration of 3 μM (0.1% DMSO). Following this, human liver microsomes (pooled, Invitrogen, #HMMCPL) (7.5 μL; final protein conc. 0.5 mg/mL) were added. The aforementioned sample was incubated at 37° C. for 5 min. Subsequently, 30 μL of 10 mM NADPH prepared in 0.1 M potassium phosphate buffer was added (as a co-factor) to initiate the reaction. The samples were then incubated at 37° C. for 0, 20, 40, 60 and 120 min.
At each time point (0, 20, 40, 60 and 120 min), 40 μL of the samples were withdrawn and reactions were stopped using 360 μL chilled acetonitrile or methanol containing suitable internal standard (Carbamazepine). The samples were centrifuged and the supernatants was analyzed in duplicate by LC-MS/MS. The percent compound remaining at each time point was calculated with respect to that of the 0 min sample. Control samples were run without NADPH for initial and final time point and blank samples was prepared using DMSO (without the test compound).
For comparison, the experiment was also performed with known Trk receptor signalling modulator 1-methyl-3-[3-methyl-4-(4-trifluoromethanesulfonylphenoxy)phenyl]-1,3,5-triazinane-2,4,6-trione) (ponazuril). Ponazuril is metabolized very slowly in vivo and this prolonged exposure creates an increased risk of side effects if the compound is administered systemically. This causes significant challenges to the development of the compound as a systemic drug.
(Microsomes from liver hold many membrane-bound enzymes, among them those of drug oxidation.)

The target in a further data set is T2, TrkB (Homo sapiens, UniProt Q16620).
T2 construct: expressed in transfected cells; host or cells: U2OS
T2 sequence (Q16620 32-822): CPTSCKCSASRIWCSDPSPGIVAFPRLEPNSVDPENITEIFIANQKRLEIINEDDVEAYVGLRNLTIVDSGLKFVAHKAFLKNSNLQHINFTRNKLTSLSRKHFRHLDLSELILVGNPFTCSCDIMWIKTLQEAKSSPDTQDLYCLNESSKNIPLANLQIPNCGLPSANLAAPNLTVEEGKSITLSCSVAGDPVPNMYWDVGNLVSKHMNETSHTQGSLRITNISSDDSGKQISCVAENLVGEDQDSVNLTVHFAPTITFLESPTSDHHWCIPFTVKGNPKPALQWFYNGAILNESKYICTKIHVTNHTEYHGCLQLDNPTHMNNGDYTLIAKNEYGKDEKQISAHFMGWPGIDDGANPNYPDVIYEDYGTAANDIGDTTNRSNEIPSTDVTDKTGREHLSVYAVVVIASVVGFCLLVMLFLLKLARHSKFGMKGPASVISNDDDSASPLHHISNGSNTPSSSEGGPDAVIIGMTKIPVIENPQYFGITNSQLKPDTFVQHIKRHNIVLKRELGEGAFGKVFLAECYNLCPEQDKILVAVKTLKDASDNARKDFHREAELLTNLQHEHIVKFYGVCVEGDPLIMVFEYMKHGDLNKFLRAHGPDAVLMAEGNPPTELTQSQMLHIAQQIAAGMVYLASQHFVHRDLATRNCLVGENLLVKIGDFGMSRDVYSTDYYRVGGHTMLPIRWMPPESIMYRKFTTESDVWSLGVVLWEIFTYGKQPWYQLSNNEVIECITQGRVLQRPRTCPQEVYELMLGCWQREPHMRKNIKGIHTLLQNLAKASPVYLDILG
Nature of the data set: In vitro Trk receptor modulation assay (Enzyme Fragment Complementation), U2OS cells over-expressing TrkB. Format: cell-based. Particulars: compound pre-mixed with ligand (NGF), final 10 ng/mL, 3 hours, modulator mode.
Source text: as §1, §2, §3

Structures are written as SMILES.

T1 sequence (P04629 33-796): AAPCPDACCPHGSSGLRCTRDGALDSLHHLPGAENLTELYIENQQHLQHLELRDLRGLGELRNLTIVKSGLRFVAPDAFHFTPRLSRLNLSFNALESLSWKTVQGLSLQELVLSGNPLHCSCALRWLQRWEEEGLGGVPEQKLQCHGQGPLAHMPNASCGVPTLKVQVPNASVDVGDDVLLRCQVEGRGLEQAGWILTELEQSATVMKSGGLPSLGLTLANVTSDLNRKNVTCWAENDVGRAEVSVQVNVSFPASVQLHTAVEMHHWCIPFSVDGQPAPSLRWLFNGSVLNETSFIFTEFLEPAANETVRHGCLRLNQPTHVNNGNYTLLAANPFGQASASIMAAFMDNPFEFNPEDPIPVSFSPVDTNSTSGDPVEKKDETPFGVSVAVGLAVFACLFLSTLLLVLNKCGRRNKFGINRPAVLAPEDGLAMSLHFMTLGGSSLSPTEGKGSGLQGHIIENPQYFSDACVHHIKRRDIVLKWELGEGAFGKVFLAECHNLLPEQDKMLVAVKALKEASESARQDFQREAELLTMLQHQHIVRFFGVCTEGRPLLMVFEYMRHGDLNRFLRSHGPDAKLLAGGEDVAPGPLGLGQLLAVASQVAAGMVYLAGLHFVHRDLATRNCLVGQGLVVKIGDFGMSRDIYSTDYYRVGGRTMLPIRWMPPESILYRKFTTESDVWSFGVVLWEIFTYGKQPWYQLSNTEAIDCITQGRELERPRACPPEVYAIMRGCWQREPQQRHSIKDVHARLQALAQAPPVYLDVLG

In the case of `Cc1cccc(-n2c(=O)[nH]c(=O)n(-c3ccc(Oc4ccccc4)c(C)c3)c2=O)c1` [Example 1, 1-(3-methyl-4-phenoxyphenyl)-3-(3-methylphenyl)-1,3,5-triazinane-2,4,6-trione], the values for the EC50 on TrkA and at TrkB were 120 nM and 150 nM, respectively. Besides, the “time spent immobile (Forced Swim Test) compared to vehicle control” value with C57/B16 mice is reported as “decreased time spent immobile”. Moreover, the “cognitive function, retention latency within the bright area (passive avoidance)” value in the data set on C57/Bl6 mice is listed as “improves cognitive function”. The “% of parent compound metabolized after 120 min” value in data set [1] was 26.8%.
